# Test results taken from patent publication US8119633B2, “Substituted sulfonamide compounds” (Gruenenthal GmbH, priority 2007, dated 2012).
# Columns and labels:
# [1] = molecular target: T1, human bradykinin receptor 1 (B1R) (Homo sapiens, UniProt P46663); assay: Functional study on the bradykinin receptor 1 (B1R), human: FLIPR Ca2+ influx assay; type: cell-based; details: test substance 10 μM, CHO K1 cells transfected with human B1R, Lys-Des-Arg9-bradykinin at EC80, Ca2+ influx (Fluo-4, FLIPR); for inhibition at 10 µM: read-out: B1R antagonism, human [10 μM] % inhibition
# T1 construct: expressed in transfected cells; host or cells: CHO K1 cells
# T1 sequence (P46663 1-353): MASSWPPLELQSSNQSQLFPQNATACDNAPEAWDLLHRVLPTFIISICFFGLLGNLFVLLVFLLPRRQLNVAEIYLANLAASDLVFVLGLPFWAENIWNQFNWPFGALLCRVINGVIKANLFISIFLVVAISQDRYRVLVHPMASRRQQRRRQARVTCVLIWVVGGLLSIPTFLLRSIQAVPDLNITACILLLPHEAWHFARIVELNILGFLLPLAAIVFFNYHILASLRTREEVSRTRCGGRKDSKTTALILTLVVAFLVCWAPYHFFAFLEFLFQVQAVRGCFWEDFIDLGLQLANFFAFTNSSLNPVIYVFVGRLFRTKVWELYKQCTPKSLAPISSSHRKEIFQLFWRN
# In short: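 CHO K1 cells stably expressing human B1R were loaded with Fluo-4, and Ca2+ fluorescence was read on FLIPR (ex 488/em 540 nm). Compound was added first (10 μM for % activation against Lys-Des-Arg9-bradykinin ≥0.5 nM). After 10-20 min, Lys-Des-Arg9-bradykinin was added at EC80 for % inhibition; IC50 came from concentration series, n=2-3, N≥2.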
# [2] = molecular target: T2, bradykinin receptor 1 (B1R) of the rat (Rattus norvegicus, UniProt P97583); assay: Functional study on the bradykinin receptor 1 (B1R), rat: FLIPR Ca2+ influx assay; type: cell-based; details: test substance 10 μM, CHO K1 cells transfected with rat B1R, Des-Arg9-bradykinin at EC80, Ca2+ influx (Fluo-4, FLIPR); for inhibition at 10 µM: read-out: B1R antagonism, rat [10 μM] % inhibition
# T2 construct: expressed in transfected cells; host or cells: CHO K1 cells
# T2 sequence (P97583 1-337): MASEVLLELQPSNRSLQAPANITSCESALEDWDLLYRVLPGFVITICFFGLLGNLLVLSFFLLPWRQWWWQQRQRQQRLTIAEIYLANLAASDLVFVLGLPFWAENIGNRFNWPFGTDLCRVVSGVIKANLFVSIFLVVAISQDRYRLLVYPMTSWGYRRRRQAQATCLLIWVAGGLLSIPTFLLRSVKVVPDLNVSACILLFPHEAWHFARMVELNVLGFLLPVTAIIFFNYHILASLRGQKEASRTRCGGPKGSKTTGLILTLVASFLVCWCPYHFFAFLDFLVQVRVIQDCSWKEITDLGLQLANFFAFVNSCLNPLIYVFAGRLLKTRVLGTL
# In short: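 CHO K1 cells stably expressing rat B1R, Fluo-4-loaded, read on FLIPR (ex 488/em 540 nm, peak fluorescence). Test substances added first (agonism vs 10 μM Des-Arg9-bradykinin), then after 10-20 min Des-Arg9-bradykinin at EC80; % inhibition and IC50 from concentration series, n=2-3, N≥2.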
# [3] = molecular target: T3, human μ-opiate receptor (Homo sapiens, UniProt P35372); assay: Affinity for the human μ-opiate receptor ([3H]-naloxone displacement, SPA); details: test substance 1 μmol/l, inhibition of specific [3H]-naloxone binding, CHO-K1 receptor membrane preparation; for inhibition at 1 µM: read-out: μ-Opioid receptor [1 μM] % inhibition
# T3 construct: purchased PerkinElmer Life Sciences, Zaventem, Belgium RB-HOM; host or cells: CHO-K1 cells (membrane preparation)
# Method: Studies of the Effectiveness of the Compounds According to the Invention Method for determining the affinity for the human μ-opiate receptor
# The receptor affinity for the human μ-opiate receptor is determined in a homogeneous batch on microtitre plates. To this end, serial dilutions of the substances to be tested are incubated for 90 minutes at room temperature with a receptor membrane preparation (15-40 μg of protein/250 μl of incubation batch) of CHO-K1 cells, which express the human μ-opiate receptor (RB-HOM receptor membrane preparation from PerkinElmer Life Sciences, Zaventem, Belgium), in the presence of 1 nmol/l of the radioactive ligand [^3H]-naloxone (NET719, PerkinElmer Life Sciences, Zaventem, Belgium) and 1 mg of WGA-SPA beads (wheatgerm agglutinin SPA beads from Amersham/Pharmacia, Freiburg, Germany) in a total volume of 250 μl. The incubation buffer used is 50 mmol/l of Tris-HCl supplemented with 0.06 wt. % bovine serum albumin. In order to determine non-specific binding, 100 μmol/l of naloxone is additionally added. When the ninety-minute incubation time has ended, the microtitre plates are centrifuged off for 20 minutes at 1000 g and the radioactivity is measured in a β-counter (Microbeta-Trilux, PerkinElmer Wallac, Freiburg, Germany). The percentage displacement of the radioactive ligand from its binding to the human μ-opiate receptor at a concentration of the test substances of 1 μmol/l is determined and stated as the percentage inhibition of specific binding. On the basis of the percentage displacement by different concentrations of the test substances, IC50 inhibitory concentrations, which effect 50% displacement of the radioactive ligand, are calculated. Ki values for the test substances are obtained by conversion by means of the Cheng-Prusoff equation.
# T3 sequence (P35372 whole entry): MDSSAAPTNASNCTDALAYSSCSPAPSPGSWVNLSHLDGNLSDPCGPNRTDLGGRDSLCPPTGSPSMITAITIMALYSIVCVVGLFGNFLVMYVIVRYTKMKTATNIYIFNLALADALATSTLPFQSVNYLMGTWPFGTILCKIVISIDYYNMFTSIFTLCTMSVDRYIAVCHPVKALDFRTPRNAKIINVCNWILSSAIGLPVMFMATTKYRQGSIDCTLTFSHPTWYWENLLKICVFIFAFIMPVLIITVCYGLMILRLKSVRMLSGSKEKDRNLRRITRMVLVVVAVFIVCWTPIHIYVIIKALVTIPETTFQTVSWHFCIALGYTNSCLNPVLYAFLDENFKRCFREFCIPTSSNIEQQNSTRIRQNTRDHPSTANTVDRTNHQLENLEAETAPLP
Compound,inhibition at 10 µM [1],inhibition at 10 µM [2],inhibition at 1 µM [3],"B1R antagonism, human [10 μM] % inhibition [1]","B1R antagonism, rat [10 μM] % inhibition [2]",μ-Opioid receptor [1 μM] % inhibition [3]
"O=C(CC1C(=O)NCCN1S(=O)(=O)c1ccc(Cl)cc1Cl)NC1CCC(C(c2ccccc2)N2CCOCC2)CC1 (stereo not drawn) [Example 101, 2-(1-(2,4-dichlorophenylsulfonyl)-3-oxopiperazin-2-yl)-N-(4-(morpholino(phenyl)methyl)cyclohexyl)acetamide]",104%,31%,4%,–,–,–
"CN(C)C(c1ccccc1)C1CCC(CNC(=O)CC2CCCCN2S(=O)(=O)c2cccc(C(F)(F)F)c2)CC1 (stereo not drawn) [Example 8, N—((4-((Dimethylamino)(phenyl)methyl)cyclohexyl)methyl)-2-(1-(3-(trifluoromethyl)phenylsulfonyl)piperidin-2-yl)acetamide]",71.4%,9%,94%,–,–,–
COc1cc(C)c(S(=O)(=O)N(C)CCCNC(=O)NCC2CCC(C(c3ccccc3)N(C)C)CC2)c(C)c1C (stereo not drawn) [Example 2],–,–,–,55.6%,43%,97%
"O=C(CC1CCCN1S(=O)(=O)c1ccc(Cl)c(Cl)c1)N1CCC(C(c2ccccc2)N2CCOCC2)CC1 (stereo not drawn) [Example 80, 2-[1-(3,4-dichloro-benzenesulfonyl)-pyrrolidin-2-yl]-1-[4-(morpholin-4-yl-phenylmethyl)-piperidin-1-yl]-ethanone]",16.7%,15%,7%,–,–,–
"Cc1cc(S(=O)(=O)N2CCCCC2CCC(=O)N2CCC(C(c3ccc(F)cc3)N3CCN(C)CC3)CC2)c(C)cc1Cl (stereo not drawn) [Example 121, 3-(1-(4-chloro-2,5-dimethylphenylsulfonyl)piperidin-2-yl)-1-(4-((4-fluorophenyl)(4-methylpiperazin-1-yl)methyl)piperidin-1-yl)propan-1-one]",105%,58%,6%,–,–,–
"Cc1cc(S(=O)(=O)N2CCCCC2CCC(=O)N2CCC(C(c3cccc(F)c3)N3CCN(C)CC3)CC2)c(C)cc1Cl (stereo not drawn) [Example 120, 3-(1-(4-chloro-2,5-dimethylphenylsulfonyl)piperidin-2-yl)-1-(4-((3-fluorophenyl)(4-methylpiperazin-1-yl)methyl)piperidin-1-yl)propan-1-one]",105%,73%,41%,–,–,–
"O=C(CC1C(=O)Nc2ccccc2N1S(=O)(=O)c1ccc(Cl)c(Cl)c1)NCC1CCC(C(c2ccccc2)N2CCOCC2)CC1 (stereo not drawn) [Example 64, 2-[1-(3,4-dichloro-benzenesulfonyl)-3-oxo-1,2,3,4-tetrahydro-quinoxalin-2-yl]-N-[4-(morpholin-4-yl-phenyl-methyl)-cyclohexylmethyl]-acetamide]",104%,29%,10%,–,–,–
"CN1CCN(C(c2ccccc2)C2CCC(NC(=O)CC3C(=O)NCCN3S(=O)(=O)c3ccc(Cl)cc3Cl)CC2)CC1 (stereo not drawn) [Example 61, 2-[1-(2,4-dichloro-benzenesulfonyl)-3-oxo-piperazin-2-yl]-N-{4-[(4-methyl-piperazin-1-yl)-phenyl-methyl]-cyclohexyl}-acetamide]",104%,39%,34%,–,–,–
"O=C(CC1C(=O)Nc2ccccc2N1S(=O)(=O)c1ccc(Cl)c(Cl)c1)NCC1CCC(C(CCc2ccccc2)N2CCOCC2)CC1 (stereo not drawn) [Example 65, 2-[1-(3,4-dichloro-benzenesulfonyl)-3-oxo-1,2,3,4-tetrahydro-quinoxalin-2-yl]-N-[4-(1-morpholin-4-yl-3-phenyl-propyl)-cyclohexylmethyl]-acetamide]",103%,24%,9%,–,–,–
"CN(C)C(c1ccccc1)C1CCC(NC(=O)CCCCN(C)S(=O)(=O)c2c(Cl)cc(Cl)cc2Cl)CC1 (stereo not drawn) [Example 5, N—(4-((Dimethylamino)(phenyl)methyl)cyclohexyl)-5-(2,4,6-trichloro-N-methylphenylsulfonamido)pentanamide]",101%,60%,89%,–,–,–
"Cc1cc(S(=O)(=O)N2CCCCC2CCC(=O)N2CCC(C(Cc3ccccc3)N3CCN(C)CC3)CC2)c(C)cc1Cl (stereo not drawn) [Example 118, 3-(1-(4-chloro-2,5-dimethylphenylsulfonyl)piperidin-2-yl)-1-(4-(1-(4-methyl-piperazin-1-yl)-2-phenylethyl)piperidin-1-yl)propan-1-one]",101%,93%,3%,–,–,–
"O=C(CC1CCCCN1S(=O)(=O)c1ccc(Cl)c(Cl)c1)NC1CCC(C(c2ccccc2)N2CCOCC2)CC1 (stereo not drawn) [Example 106, 2-(1-(3,4-dichlorophenylsulfonyl)piperidin-2-yl)-N-(4-(morpholino(phenyl)methyl)cyclohexyl)acetamide]",48.3%,19%,21%,–,–,–
"3-(1-(4-chloro-2,5-dimethylphenylsulfonyl)piperidin-2-yl)-1-(4-((4-methyl-piperazin-1-yl)(phenyl)methyl)piperidin-1-yl)propan-1-one [Example 122]",–,–,–,98%,40%,47%
"O=C(CC1C(=O)NCCN1S(=O)(=O)c1ccc(Cl)cc1Cl)NC1CCC(C(c2ccccc2)N2CCCC2)CC1 (stereo not drawn) [Example 102, 2-(1-(2,4-dichlorophenylsulfonyl)-3-oxopiperazin-2-yl)-N-(4-(phenyl(pyrrolidin-1-yl)methyl)cyclohexyl)acetamide]",104%,12%,35%,–,–,–
"CN1CCN(C(c2ccc(F)cc2)C2CCN(C(=O)CC3CCCCN3S(=O)(=O)c3cccc(C(F)(F)F)c3)CC2)CC1 (stereo not drawn) [Example 109, 1-(4-((4-fluorophenyl)(4-methylpiperazin-1-yl)methyl)piperidin-1-yl)-2-(1-(3-(trifluoromethyl)phenylsulfonyl)piperidin-2-yl)ethanone]",102%,99%,5%,–,–,–
"O=C(CC1C(=O)Nc2ccccc2N1S(=O)(=O)c1ccc(Cl)c(Cl)c1)NC1CCC(C(c2ccccc2)N2CCOCC2)CC1 (stereo not drawn) [Example 54, 2-[1-(3,4-dichloro-benzenesulfonyl)-3-oxo-1,2,3,4-tetrahydro-quinoxalin-2-yl]-N-[4-(morpholin-4-yl-phenyl-methyl)-cyclohexyl]-acetamide]",105%,44%,12%,–,–,–
